According to patent US9493474B2, “Inhibitors of the renal outer medullary potassium channel” (Merck Sharp & Dohme Corp., priority 2011, dated 2016):

Columns and labels:
[1] = target: hROMK (hKir1.1) (Homo sapiens (Human), UniProt P48048); assay: Thallium Flux Assay; format: cell-based; details: HEK293 cells stably expressing hROMK (hKir1.1); FLIPR-Tetra, 30 min compound incubation
Text: (§1) Several assays may be used to measure functional inhibition of the ROMK channel by compounds of the instant invention. One assay that can be used is an electrophysiology assay that measures the electrical current that is generated as potassium permeates through the channel. Another ROMK functional assay makes use of the ability of thallium to permeate through open ROMK channels and increase the fluorescence of a dye previously loaded into the cells. Under control conditions, cells loaded with dye and exposed to thallium-containing medium display a time-dependent increase in fluorescence, the rate of which depends on number of functional channels. When cells are incubated in the presence of a channel inhibitor, the increase in fluorescence is attenuated in a concentration-dependent manner, and IC50 values of inhibition by compounds can be accurately determined. This assay has been established with cell lines expressing either human, or rat ROMK channels, and operates in 384-well format.
HEK293 cells stably expressing hROMK (hKir1.1) were grown at 37° C. in a 10% CO2 humidified incubator in complete growth media: Dulbecco's Modified Eagle Medium supplemented with non-essential amino acids, Penicillin/Streptomycin/Glutamine, G418 and FBS. At >80% confluency, the media was aspirated from the flask and the sample was rinsed with 10 ml Calcium/Magnesium-free PBS. […] To dislodge the cell, the side of the flask was gently banged with a hand. The cells were triturated completely and then transferred to 25 ml complete media. The sample was then centrifuged at 1,500 rpm for 6 minutes, followed by resuspension in complete growth media and then cell concentration was determined. […] Under ideal growth conditions and appropriate tissue culture practices, this cell line is stable for 40-45 passages.
• FluxOR™ Reagent (Component A) • FluxOR™ Assay Buffer (Component B)—10× Concentrate • PowerLoad™ Concentrate (Component C)—100× Concentrate • Probenecid (Component D)—Lyophilized sample is kept at −20° C. Water soluble, 100× after solubilization in 1 ml water. […] Store at 4° C. • Thallium sulfate (Tl2SO4) Concentrate (Component G)—50 mM in water. […] Can be stored at room temperature • Stimulant Buffer (prepared at 5× final concentration in 1× FluxOR™ Chloride-Free Buffer): 7.5 mM Thallium sulfate and 0.75 mM Potassium sulfate (to give a final assay concentration of 3 mM Thallium/0.3 mM Potassium). Store at 4° C. when not in use. If kept sterile, this solution is good for months. Assay Protocol—
The ROMK channel functional thallium flux assay is performed in 384 wells, using the FLIPR-Tetra instrument. HEK-hKir1.1 cells are seeded in Poly-D-Lysine microplates and kept in a 37° C.-10% CO2 incubator overnight. On the day of the experiment, the growth media is replaced with the FluxOR™ reagent loading buffer and incubated, protected from light, at ambient temperature (23-25° C.) for 90 min. The loading buffer is replaced with assay buffer±test compound followed by 30 min incubation at ambient temperature, where the Thallium/Potassium stimulant is added to the microplate.
• 1. Seed HEK-hKir1.1 cells (50 μl at 20,000 cells/well) in 384-well PDL coated Microplates • 2. Allow cells to adhere overnight in humidified 37° C./10% CO2 incubator • 3. Completely remove cell growth media from microplate and replace with 25 μl loading buffer • 4. Incubate Microplate at room temperature, protected form light, for 90 min • 5. Remove loading buffer and replace with 25 μl 1× Assay Buffer±test compound. • 6. Incubate microplate at room temperature, protected form light, for 30 min • 7. […] Excitation=400 nm, Emission=460 & 580 nm. Collect data for 10 min. Data Calculation—
The fluorescence intensity of wells containing 3 μM of a standard control ROMK inhibitor of the present invention is used to define the ROMK-sensitive component of thallium flux. Fluorescence in the presence of test compounds is normalized to control values to provide % fluorescence change.

[2] = target: Kir1.1 (ROMK1) (Homo sapiens (Human), UniProt P48048); assay: Electrophysiology Assay (whole cell voltage clamp, IonWorks Quattro); format: cell-based; details: Chinese hamster ovary cells stably expressing Kir1.1; block at voltage step to 0 mV, 6 minutes compound incubation; read-out: EP Assay IC50
Text: as §1
Block of Kir1.1 (ROMK1) currents was examined by whole cell voltage clamp (Hamill et. al. Pfluegers Archives 391:85-100 (1981)) using the IonWorks® Quattro automated electrophysiology platform (Molecular Devices, Sunnyvale, Calif.). Chinese hamster ovary cells stably expressing Kir1.1 channels were maintained in T-75 flasks in cell culture media in a humidified 10% CO2 incubator at 37° C. Prior to an experiment, Kir1.1 expression was induced by overnight incubation with 1 mM sodium butyrate. On the day of the experiment, cells were dissociated with 2.5 ml of Versene™ (Invitrogen 15040-066) for approximately 6 minutes at 37° C. and suspended in 10 ml of bath solution containing (in mM): 150 NaCl, 10 KCl, 2.7 CaCl2, 0.5 MgCl2, 5 HEPES, pH 7.4. After centrifugation, the cell pellet was resuspended in approximately 4.0 ml of bath solution and placed in the IonWorks® instrument. The intracellular solution consisted of (in mM): 80 K gluconate, 40 KCl, 20 KF, 3.2 MgCl2, 3 EGTA, 5 Hepes, pH 7.4. Electrical access to the cytoplasm was achieved by perforation in 0.13 mg/ml amphotericin B for 4 minutes. Amphotericin B (Sigma A-4888) was prepared as a 40 mg/ml solution in DMSO.
Voltage protocols and current recordings were performed using the IonWorks® HT software/hardware system. Currents were sampled at 1 kHz. No correction for liquid junction potentials was used. The test pulse, consisting of a 100 ms step to 0 mV from a holding potential of −70 mV, followed by a 100 ms voltage ramp from −70 mV to +70 mV, was applied before and after a 6 minutes compound incubation period. Test compounds were prepared by diluting DMSO stock solutions into the bath solution at 3× the final concentration and placed in the instrument in 96-well polypropylene plates. Current amplitudes were measured using the IonWorks® software. To assess compound potency, the fractional block during the voltage step to 0 mV was calculated in Microsoft® Excel (Microsoft, Redmond, Calif.), and dose-response curves were fitted with Igor Pro 4.0 (WaveMetrics, Lake Oswego, Oreg.).

Chain of hROMK (hKir1.1) (P48048 whole entry): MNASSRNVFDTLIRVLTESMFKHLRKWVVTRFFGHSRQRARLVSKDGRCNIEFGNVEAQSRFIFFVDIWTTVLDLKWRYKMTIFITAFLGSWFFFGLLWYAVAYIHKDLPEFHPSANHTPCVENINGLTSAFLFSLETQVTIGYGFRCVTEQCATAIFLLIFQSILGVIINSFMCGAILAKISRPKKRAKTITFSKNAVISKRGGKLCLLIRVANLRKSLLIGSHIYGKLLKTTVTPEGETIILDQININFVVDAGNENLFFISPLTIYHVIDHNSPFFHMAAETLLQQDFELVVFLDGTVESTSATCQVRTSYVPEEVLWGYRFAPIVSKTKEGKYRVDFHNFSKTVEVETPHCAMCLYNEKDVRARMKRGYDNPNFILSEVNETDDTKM
Chain of Kir1.1 (ROMK1) (P48048 whole entry, species assumed): as the sequence (P48048 whole entry) above

Row | Compound | IC50 [1] [nM] | IC50 [2] [nM]
1 | Cc1c([C@@H](O)CN2CCC3CN(CC(O)c4ccc(C#N)cn4)CC32)ccc2c1COC2=O (single isomer, unassigned) [Example 7A] | 152 | 47
2 | Cc1c([C@@H](O)CN2CCC3CN(CC(O)c4ccc(C#N)cn4)CC32)ccc2c1COC2=O (single isomer, unassigned) [Example 7B] | 566 | 2400
3 | Cc1c([C@@H](O)CN2CCC3CN(S(=O)(=O)c4ccc(C#N)cc4)CC32)ccc2c1COC2=O (single isomer, unassigned) [Example 8B] | 662 | 
4 | Cc1c([C@@H](O)CN2CCC3(CCCN3C[C@H](O)c3ccc4c(c3C)COC4=O)C2)ccc2c1COC2=O (single isomer, unassigned) [Example 10B] | 76 | 184
5 | Cc1c([C@@H](O)CN2C(C)CC3CN(CC(O)c4ccc(C#N)cn4)CC32)ccc2c1COC2=O (single isomer, unassigned) [Example 11A] | 93 | 
6 | Cc1c([C@@H](O)CN2C(C)CC3CN(CC(O)c4ccc(C#N)cn4)CC32)ccc2c1COC2=O (single isomer, unassigned) [Example 11B] | 91 | 53
7 | Cc1cc(S(=O)(=O)N2CCCC23CCN(C[C@H](O)c2ccc4c(c2C)COC4=O)C3)ccc1-n1cnnn1 (single isomer, unassigned) [Example 18A] | 138 | 79
8 | Cc1cc(S(=O)(=O)N2CCCC23CCN(C[C@H](O)c2ccc4c(c2C)COC4=O)C3)ccc1-n1cnnn1 (single isomer, unassigned) [Example 18B] | 294 | 125
9 | Cc1c([C@@H](O)CN2CC3CN(CC(O)c4ccc(C#N)cn4)C3C2)ccc2c1COC2=O (single isomer, unassigned) [Example 22] | 916 | 
10 | Cc1c([C@@H](O)CN2CC3CN(CC(O)c4ccc(C#N)cn4)C3C2)ccc2c1COC2=O (single isomer, unassigned) [Example 23] | 540 | 1800
11 | Cc1c([C@@H](O)CN2CCCC3(CCN(C[C@H](O)c4ccc5c(c4C)COC5=O)C3)C2)ccc2c1COC2=O (stereo partly drawn) [Example 1, 5,5′-{2,7-Diazaspiro[4.5]decane-2,7-diylbis[(1R)-1-hydroxyethane-2,1-diyl]}bis(4-methyl-2-benzofuran-1(3H)-one)] | 274 | 117
12 | Cc1c([C@@H](O)CN2CC3CCN(C(=O)c4ccc(C#N)cn4)CC3C2)ccc2c1COC2=O (stereo partly drawn) [Example 3, 6-({2-[(2R)-2-Hydroxy-2-(4-methyl-1-oxo-1,3-dihydro-2-benzofuran-5-yl)ethyl]octahydro-5H-pyrrolo[3,4-c]pyridine-5-yl}carbonyl)pyridine-3-carbonitrile] | 865 | 
13 | Cc1c([C@@H](O)CN2CCCC3(CCCN3C[C@H](O)c3ccc4c(c3C)COC4=O)C2)ccc2c1COC2=O (stereo partly drawn) [Example 5, 5,5′-{1,7-Diazaspiro[4.5]decane-1,7-diylbis[(1R)-1-hydroxyethane-2,1-diyl]}bis(4-methyl-2-benzofuran-1(3H)-one)] | 737 | 348
14 | Cc1c([C@@H](O)CN2CCCC3(CCCN(C[C@H](O)c4ccc5c(c4C)COC5=O)C3)C2)ccc2c1COC2=O [Example 6, 5,5′-{2,8-Diazaspiro[5.5]undecane-2,8-diylbis[(1R)-1-hydroxyethane-2,1-diyl]}bis(4-methyl-2-benzofuran-1(3H)-one)] | 359 | 201
15 | N#Cc1ccc(S(=O)(=O)N2CCC3CN(C[C@H](O)c4ccc5c(c4)COC5=O)CC32)cc1 (stereo partly drawn) [Example 9, 4-(5-((R)-2-Hydroxy-2-(1-oxo-1,3-dihydroisobenzofuran-5-yl)ethyl)hexahydropyrrolo[3,4-b]pyrrol-1(2H)-ylsulfonyl)benzonitrile] | 234 | 
16 | Cc1c([C@@H](O)CN2CCC3(CCCN(C(=O)c4ccc(-n5cnnn5)nc4)C3)C2)ccc2c1COC2=O (stereo partly drawn) [Example 14, 5-((1R)-2-(7-(6-(1H-tetrazol-1-yl)nicotinoyl)-2,7-diazaspiro[4.5]decan-2-yl)-1-hydroxyethyl)-4-methylisobenzofuran-1(3H)-one] | 241 | 108
17 | Cc1c([C@@H](O)CN2CC3CCN(C(=O)c4ccc(-n5cnnn5)nc4)CC3C2)ccc2c1COC2=O (stereo partly drawn) [Example 15, 5-((1R)-2-(5-(6-(1H-Tetrazol-1-yl)nicotinoyl)-1H-pyrrolo[3,4-c]_yridine-2(3H,3aH,4H,5H,6H,7H,7aH)-yl)-1-hydroxyethyl)-4-methylisobenzofuran-1(3H)-one] | 103 | 200
18 | Cc1c([C@@H](O)CN2CCC3CN(C(=O)c4ccc(-n5cnnn5)cn4)CC32)ccc2c1COC2=O (stereo partly drawn) [Example 16, 5-((1R)-2-(5-(5-(1H-tetrazol-1-yl)picolinoyl)hexahydropyrrolo[3,4-b]pyrrol-1(2H)-yl)-1-hydroxyethyl)-4-methylisobenzofuran-1(3H)-one] | 602 | 850
19 | Cc1c([C@@H](O)CN2CCC3CN(S(=O)(=O)c4ccc(-n5cnnn5)cc4)CC32)ccc2c1COC2=O (stereo partly drawn) [Example 20, 5-((1R)-2-(5-(4-(1H-Tetrazol-1-yl)phenylsulfonyl)hexahydropyrrolo[3,4-b]pyrrol-1(2H)-yl)-1-hydroxyethyl)-4-methylisobenzofuran-1(3H)-one] | 1050 | 
